Measured values from patent US5886051A, “Methods and compositions for the treatment of neurodegeneration” (University Of Florida Research Foundation, Inc., priority 1995, dated 1999).

Test system: N-methyl-D-aspartate receptor complex
Experiment: [3H]MK-801 binding to rat cortical membranes with excess L-glutamate and glycine, modulated by polyamines
Details: for [3H]MK-801 binding relative to "100% Control": 100 μM L-Glu, 100 μM Gly, 2 nM [3H]MK-801, mean ± SD; for effect on [3H]MK-801 binding: at 100 μm; for concentration above which the polyamine is antagonistic: piperidine polyamines, tested 0.05-1,000 μM
Description: Data are plotted as means ±standard deviation for four separate experiments on each tetraamine: (--.tangle-solidup.--) SPM (n=4), (.largecircle.) DMNSPM (n=4), (.circle-solid.) DMHSPM (n=4), (.rect-hollow.) DENSPM (n=4), (.box-solid.) DEHSPM (N=4), (.increment.) DBHSPM (n=4) and (--.tangle-solidup.--) BAHSPM (n=4).
Cerebral cortices from young male Sprague-Dawley rats (200-300 g) were homogenized with 10 volumes of ice-cold 0.32M sucrose using a motor-driven glass/Teflon homogenizer. The homogenate was centrifuged at 1,000 g for 10 minutes. The 1,000 g pellet was re-suspended in buffer A (5 mM Tris-HCl, pH 7.7 at 4° C.) and centrifuged at 8,000 g for 20 minutes. The supernatant and upper buffy coat of the pellet were combined and centrifuged at 50,000 g for 20 minutes. The pellet was then re-suspended in 10 volumes of buffer A and homogenized using high-intensity ultrasound and centrifuged at 50,000 g, discarding the supernatant. The pellet was washed in this manner an additional three times and stored as a frozen suspension at […] for at least 18 hours, but no longer than two weeks, before use.
For binding experiments, frozen membranes were thawed, pelleted at 50,000 g for 20 minutes and washed as described above, except that 20 volumes of buffer A were used for re-suspension, for a total of five times. The final pellet was re-suspended in buffer B (5 mM Tris-HCl, pH 7.5 at 23° C.).
Binding assays were performed in triplicate at 23° C. for 1 hour and were terminated by filtration through Whatman GF/B glass fiber filters followed by three 5.0 ml rinses of ice-cold buffer B using a Brandel M-48 cell harvester.

| [3H]MK-801 binding relative to "100% Control" (1 μM tetraamine) [%] | [3H]MK-801 binding relative to "100% Control" (10 μM tetraamine) [%] | SMILES | further results |
| --- | --- | --- | --- |
| 106.5±8.0 | 33.0±4.0 | CC(C)(C)NCCCCNCCCCNCCCCNC(C)(C)C [DBHSPM] |  |
| 114.3±4.5 | 53.9±6.0 | CCNCCCCNCCCCNCCCCNCC [DEHSPM, diethylhomospermine] |  |
| 113.7±5.9 | 63.7±5.9 | CCNCCCNCCCNCCCNCC [DENSPM] |  |
| 117.8±8.1 | 76.3±7.0 | CNCCCCNCCCCNCCCCNC [DMHSPM] |  |
| 120.6±3.1 | 87.9±6.0 | CNCCCNCCCNCCCNC [DMNSPM] |  |
|  |  | C(CNC1CCNCC1)CNC1CCNCC1 [PIP[3,3,3]] | effect on [3H]MK-801 binding: still agonistic |
|  |  | C(CCNC1CCNCC1)CNC1CCNCC1 [PIP[3,4,3]] | effect on [3H]MK-801 binding: agonistic |
|  |  | C(CCNCC1CCNCC1)CNCC1CCNCC1 [PIP[4,4,4], N,N'-1,4-Butanediylbis(4-piperidinemethanamine)] | concentration above which the polyamine is antagonistic: above 12 μm |
|  |  | C(CCNCCC1CCNCC1)CNCCC1CCNCC1 [PIP[5,4,5], N,N'-1,4-Butanediylbis(4-piperidineethanamine)] | concentration above which the polyamine is antagonistic: above 13 μm |

| SMILES | [3H]MK-801 binding relative to "100% Control" (1 μM tetraamine) [%] | [3H]MK-801 binding relative to "100% Control" (10 μM tetraamine) [%] | further results |
| --- | --- | --- | --- |
| Cl.Cl.Cl.Cl.NCCCNCCCCNCCCN [SPM, Spermine tetrahydrochloride, reference compound] | 123.2±5.0 |  | [3H]MK-801 binding relative to "100% Control" (500 μM tetraamine): 82.0±8.1%; [3H]MK-801 binding relative to "100% Control" (1,000 μM tetraamine, 1000 µM): 78.9±8.3%; effect on [3H]MK-801 binding relative to "100% Control" (at 500 and 1,000 μM): moderate antagonism |
